Measured values from patent publication US6203824A (priority 1992, dated 2001).
Several values for one entry are separate records, joined by “and”; a condition that tells them apart may be missing. Equal values may be shown once. Read-outs that look alike come from different tables or passages of the source.

Tests used:
Trogoderma granarium = conditions: in vivo; cited from earlier work
[1] = system: Oryzsephilus surinamensis; conditions: in vivo; cited from earlier work
Rhyzopertha dominica = conditions: in vivo; cited from earlier work
Tribolium confusum = conditions: in vivo; cited from earlier work
Sitophilus oryzae = conditions: in vivo; cited from earlier work
Sitophilus granarius = conditions: in vivo; cited from earlier work
Tenebroides mauritanicus = conditions: in vivo; cited from earlier work
[2] = 25° C.; cited from earlier work
Tribolium castaneum = conditions: in vivo; cited from earlier work
L. destructor = conditions: in vivo
[3] = format: physicochemical; conditions: empty vial, 15 min
mould = conditions: in vivo
[4] = system: grains of Australian standard white wheat and malting barley; conditions: in vivo
Mice = conditions: cited from earlier work
Rabbits = conditions: rabbit, in vivo; cited from earlier work
[5] = moist soil
R. dominica = conditions: in vivo
[6] = system: Coptotermes acinaciformis; test: whole plant or invertebrate; conditions: inhaled or nasal, 24 h, read-out: Corrected mortality
B. tyroni [7] = test: whole plant or invertebrate; conditions: Bactrocera, inhaled or nasal, read-out: Corrected mortality
S. oryzae [8] = conditions: in vivo
Cold blooded animals = conditions: in vivo; cited from earlier work
[9] = system: Liposcelis bostrychophilus; conditions: in vivo
S. oryzae [10] = system: S. oryzae; set-up: species or system Sitophilus oryzae; conditions: in vivo
B. tyroni [11] = conditions: queensland fruit fly, in vivo, inhaled

## C=CC#N [Acrylonitrile, acrylonitrile]
Trogoderma granarium
  LC95 (concentration x time product): 48.0
[1]
  LC95 (concentration x time product): 8.4
Rhyzopertha dominica
  LC95 (concentration x time product): 8.4
Tribolium confusum
  LC99 (concentration x time product): 19.5
Sitophilus oryzae
  LC95 (concentration x time product): 10.8
Sitophilus granarius
  LC99 (concentration x time product): 11.0
Tenebroides mauritanicus
  LC99 (concentration x time product): 40.0

## S=C=S [Carbon disulphide, carbon disulphide]
[2]
  solubility in water: 2.2 grams per litre
Trogoderma granarium
  LC95 (concentration x time product): 696.0
[1]
  LC95 (concentration x time product): 408.0
Rhyzopertha dominica
  LC95 (concentration x time product): 294.0
Tribolium confusum
  LC99 (concentration x time product): 560.00
Sitophilus oryzae
  LC95 (concentration x time product): 300.0
Sitophilus granarius
  LC99 (concentration x time product): 325.0
Tenebroides mauritanicus
  LC99 (concentration x time product): 828.00

## ClC(Cl)(Cl)Cl [Carbon tetrachloride, carbon tetrachloride]
Tribolium castaneum
  LC90 (concentration x time product): 600.0
Tribolium confusum
  LC99 (concentration x time product): 025.0
Sitophilus oryzae
  LC95 (concentration x time product): 220.0
Sitophilus granarius
  LC99 (concentration x time product): 495.0
Tenebroides mauritanicus
  LD50 (concentration x time product): 400.00

## BrCCBr [Ethylene dibromide, ethylene dibromide]
Trogoderma granarium
  LC95 (concentration x time product): 80.0
[1]
  LC95 (concentration x time product): 19.2
Rhyzopertha dominica
  LC95 (concentration x time product): 37.2
Tribolium castaneum
  LD95 (concentration x time product): 22.0
Tribolium confusum
  LC99 (concentration x time product): 31.0
Sitophilus oryzae
  LC95 (concentration x time product): 60.0
Sitophilus granarius
  LC99 (concentration x time product): 34.5
Tenebroides mauritanicus
  LC99 (concentration x time product): 125.00

## ClCCCl [Ethylene dichloride, ethylene dichloride]
Trogoderma granarium
  LC95 (concentration x time product): 2080.5
[1]
  LC95 (concentration x time product): 462.0
Rhyzopertha dominica
  LC95 (concentration x time product): 636.0
Tribolium castaneum
  LC90 (concentration x time product): 462.0
Tribolium confusum
  LC99 (concentration x time product): 365.0
Sitophilus oryzae
  LC95 (concentration x time product): 738.0
Sitophilus granarius
  LC99 (concentration x time product): 230.0
Tenebroides mauritanicus
  LC99 (concentration x time product): 1728.0

## C1CO1 [Ethylene oxide, ethylene oxide]
Trogoderma granarium
  LC95 (concentration x time product): 176.0
[1]
  LC95 (concentration x time product): 60.0
Rhyzopertha dominica
  LC95 (concentration x time product): 69.6
Tribolium castaneum
  LD99 (concentration x time product): 135.0
Tribolium confusum
  LC99 (concentration x time product): 127.5
Sitophilus oryzae
  LC95 (concentration x time product): 62.0
Sitophilus granarius
  LC99 (concentration x time product): 36.0
Tenebroides mauritanicus
  LC99 (concentration x time product): 175.0

## CBr [Methyl bromide, methyl bromide]
[2]
  solubility in water: 13.4 grams per litre
Trogoderma granarium
  LC95 (concentration x time product): 136.0
[1]
  LC95 (concentration x time product): 40.8
Rhyzopertha dominica
  LC95 (concentration x time product): 33.0
Tribolium castaneum
  LD95 (concentration x time product): 62.0
Tribolium confusum
  LC99 (concentration x time product): 64.0
Sitophilus oryzae
  LD99 (concentration x time product): 30.0
Sitophilus granarius
  LC99 (concentration x time product): 28.0
Tenebroides mauritanicus
  LC99 (concentration x time product): 115.0

## P [Phosphine, phosphine]
Trogoderma granarium
  100% mort. (concentration x time product): 331.0
[1]
  LD99 (concentration x time product): 0.96
Rhyzopertha dominica
  LD99 (concentration x time product): 0.6
Tribolium castaneum
  LC90 (concentration x time product): 11.5
Tribolium confusum
  LC99 (concentration x time product): 0.48
Sitophilus oryzae
  LD99 (concentration x time product): 0.36
Sitophilus granarius
  LC99 (concentration x time product): 1.01
Tenebroides mauritanicus
  LC99 (concentration x time product): ~5.0

## O=S(=O)(F)F [Sulphuryl fluoride, sulphuryl fluoride]
Tribolium confusum
  LC99 (concentration x time product): 55.0
Sitophilus granarius
  LC99 (concentration x time product): 17.5
Tenebroides mauritanicus
  LC99 (concentration x time product): 81.5

## O=C=S [carbonyl sulphide]
L. destructor
  Minimum effective tested dose: 120
L. destructor; mite, inhaled, 6 h
  Corrected mortality: 100%
[3]
  recovery of the calculated applied dose: 98.4 per cent
mould
  discolouration of wheat by mould: no discolouration occurred
[4]
  % Germination, final count (10 days): 96% and 93% and 92%
  % Germination, first count (4 days): 93% and 91% and 89%
  effect on seed germination or vigour: no effect on seed germination or vigour was detected
Mice; 1200 ppm
  time to death: 35 min
Mice; 2900 ppm
  time to death: 11/2
Mice; 8900 ppm
  time to death: 3/4
Mice; mouse, in vivo
  concentration in air above which mice die quickly: more than 0.3 per cent
  effects after exposure: no perceptible effects
[2]
  solubility in water: 1.4 grams per litre
Rabbits
  concentration in air above which rabbits die quickly: more than 0.3 per cent
  effects after exposure: some ill effects
[5]; 2 min
  concentration as per cent of the calculated initial concentration: 62 per cent
[5]; 5 h
  concentration as per cent of the calculated initial concentration: 18 per cent
[5]; 20 h
  concentration as per cent of the calculated initial concentration: 5.9 per cent
R. dominica
  No. emerging: 2
R. dominica; rhyzopertha dominica, 24 h
  control of all immature stages of R. dominica, on average: 93.4 per cent
[6]
  mortality at 192 mg h/L: 0%
  mortality at 600 mg h/L: 100%
B. tyroni [7]; 6 h
  mortality at 120 mg h/L: 12.6%
  mortality at 150 mg h/L: 13.5%
  mortality at 210 mg h/L: 100%
  mortality at 300 mg h/L: 91.7%
  mortality at 360 mg h/L: 100%
  mortality at 480 mg h/L: 99.2%
  mortality at 600 mg h/L: 100%
  mortality at 720 mg h/L: 99.7%
  mortality at 870 mg h/L: 93.3%
B. tyroni [7]; 24 h
  mortality at 120 mg h/L: 37.1%
  mortality at 180 mg h/L: 4.9%
  mortality at 240 mg h/L: 19.5%
  mortality at 366 mg h/L: 53.3%
  mortality at 420 mg h/L: 88.8%
  mortality at 480 mg h/L: 98.3%
  mortality at 540 mg h/L: 98.3%
  mortality at 600 mg h/L: 100%
S. oryzae [8]
  No. emerged: 2
Cold blooded animals
  resistance compared with warm-blooded animals: more resistance
[9]
  Minimum effective tested dose: 22.5
  psocids dead after exposure: all 200 of the psocids were dead
S. oryzae [10]
  Number of insects emerging from culture: 2
B. tyroni [11]; 6 h
  Corrected mortality: 100%
B. tyroni [11]; 24 h
  Corrected mortality: 100%
